In patent publication US6495580B1, “Compounds, compositions and methods for treating or preventing pneumovirus infection and associated diseases” (ViroPharma Incorporated, priority 1998, dated 2002) one finds IC50 and CC75 data, which are given here for nine molecules.

Like-named read-outs stand apart in the source and are kept apart here.

Holding throughout (assay type): cell-based
The subject of one data set is human RSV subtype A. The data set can be described thus: Cell culture assay for inhibition of pneumovirus replication (protection from virus-induced cytopathic effect), RSV-A. As to the method: (§1) The replication of many viruses may be quantitatively assessed in the laboratory in various cell or tissue culture systems. Such in vitro culture methodologies are available and useable by those skilled in the art for the propagation and quantitative measurement of the replication of pneumoviruses. The following procedure was used for the in vitro quantitative measure of RSV replication.
(§2) Using the procedure described in this example, compounds of the present invention were evaluated for their ability to inhibit the replication of the virus in cell culture. By adding compounds at various concentrations to the culture medium, a dose response effect of the compound on virus replication was determined. A useful quantitative measure of the inhibition of RSV replication in this assay is the concentration of the compound at which virus replication in cell culture is inhibited by 50% in comparison to that observed in the absence of the compound (50% Inhibitory Concentration, IC50). In the case of RSV, IC50 values are defined as the concentration of compound that protected 50% of the cell monolayer. from virus-induced cytopathic effect (syncytia formation).
(§3) Anti-pneumovirus compounds of the invention were screened for antiviral activity against RSV (strain Long) on cultured HEp2 cells. Standard 96-well culture plates were seeded with 4×10^4 HEp2 cells in 200 μL of Minimal Essential Medium with Earles salts (EMEM) supplemented with 10% fetal bovine serum (FBS). Twenty-four to 30 hours later, the cells were infected with a dilution of RSV in Medium 199 (GIBCO/BRL) with 5% FBS that had been titrated to yield>85% destruction of the cell monolayer in 60 hours. After 1 hour at […], compounds were added to wells of the plate in a final DMSO concentration of 0.5% as a series of 10 two-fold dilutions of the compound. Virus control wells (VC, no test compound) and cell culture control wells (CC, no virus, no test compound) were also included on each plate. Plates were incubated in a humidified atmosphere at 37° C. and 5% carbon dioxide. After 60 hours, 100 μL of a 5% solution of glutaraldehyde in water was added to each well, and the wells were incubated at room temperature for 1 hour. The fixative was removed, and the cells were stained with a 0.1% solution of crystal violet in water for 15-30 minutes. After rinsing and drying the plates, the optical density of the wells was measured at 570 nm (OD570).
(§4) To determine IC50 values for the test compounds,the mean value of the OD570 readings of the virus control wells (VC) on a plate was substracted from the OD570 readings of all wells on that plate. The IC50 values were then calculated according to the following formula:
(§5) IC50=[(Y—B)/(A—B)]×(H—L)+L
(§6) where Y represents the mean OD570 reading of the cell control wells (CC) divided by 2; B represents the mean OD570 reading of wells of the compound dilution nearest to and below Y; A represents the mean OD570 reading of wells of the compound dilution nearest to and above Y; L represents the compound concentration at B; and H represents the compound concentration at A.
(§7) A similar assay is useful for various strains of human RSV, including subtype A and subtype B viruses, as well as other pneumoviruses.

A further data set deals with human RSV subtype B. The data set can be described thus: Cell culture assay for inhibition of pneumovirus replication, RSV-B. The conditions noted are these: protection from cytopathic effect. On the procedure:
as §1, §2, §3, §4, §5, §6, §7

Another data set has as its system bovine RSV. The data set can be described thus: Cell culture assay for inhibition of pneumovirus replication, BRSV. The settings on record: protection from cytopathic effect. On the procedure:
as §1, §2, §3, §4, §5, §6, §7

A further data set concerns ovine RSV. The data set can be described thus: Cell culture assay for inhibition of pneumovirus replication, ORSV. The conditions noted are these: protection from cytopathic effect. As to the method: as §1, §2, §3, §4, §5, §6, §7
In the next data set the test system is goat RSV. The data set can be described thus: Cell culture assay for inhibition of pneumovirus replication, GRSV. The settings on record: protection from cytopathic effect. As to the method: as §1, §2
Anti-pneumovirus compounds of the invention were screened for antiviral activity against RSV (strain Long) on cultured HEp2 cells. […] After rinsing and drying the plates, the optical density of the wells was measured at 570 nm (OD570).
To determine IC50 values for the test compounds,the mean value of the OD570 readings of the virus control wells (VC) on a plate was substracted from the OD570 readings of all wells on that plate. The IC50 values were then calculated according to the following formula: […]
where Y represents the mean OD570 reading of the cell control wells (CC) divided by 2; B represents the mean OD570 reading of wells of the compound dilution nearest to and below Y; A represents the mean OD570 reading of wells of the compound dilution nearest to and above Y; L represents the compound concentration at B; and H represents the compound concentration at A. […]

The next data set deals with normal cells. The data set can be described thus: MTT cytotoxicity assay. The conditions noted are these: highest compound concentration giving optical density ≧75% of control, 68 hours incubation. As to the method: This assay measures cell viability, and therefore cytotoxicity, by quantitatively detecting the in situ reduction of 3-(4,5-dimethylthiazol-2-yl)-2,5-diphenyltetrazolium bromide (MTT) by viable cells. Cells are seeded in 96-well plates in DMEM containing 5% FBS at a density of 4×10^3 cells per well. After incubation for 4 hours at 37° C. and 5% CO2, 2-fold serial dilutions of compound in 1% DMSO (or solvent alone) are added to quadruplicate wells and the plates are incubated for an additional 68 hours at 37° C. and 5% CO2, which is equivalent to 3 to 4 cell doublings. The culture medium is removed, and the cells are treated with 1 mg/ml of MTT in phosphate-buffered saline, pH 7.2 for 4 hours at 37° C. and 5% CO2. After removal of the unreduced MTT, the reduced blue formazan crystals produced by the viable cells are solubilized by the addition of 0.04N HCl in isopropanol. The optical density at 570 nm (OD570) of each well is read using a suitable microplate reader. Cell viability is expressed as the percentage of optical density for compound-treated cells relative to the optical density of solvent alone-treated control wells. The highest compound concentration resulting in an optical density of≧75% of the control is represented as the cellular cytotoxicity value (CC75).

The mark [1] stands for this setting: Activity against human RSV subtype A (Table 2), values marked 2: protection achieved only 70-90% at highest concentrations tested, read-out: IC50.
Where [2] appears, read: human RSV subtype A, concentration protecting 50% of cell monolayer from virus-induced cytopathic effect, HEp2 cells, 60 hours, read-out: IC50 RSV-A.
Where [3] appears, read: human respiratory syncytial virus.

As to `Nc1nnnn1N=Cc1ccc(O)c(C(c2ccc(O)cc2)c2cc(C=Nn3nnnc3N)ccc2O)c1` (stereo not drawn) [Example 1, 5,5′-Bis[1-(((5-amino-1H-tetrazolyl)imino)methyl)]2,2′,4″-methylidynetrisphenol], the IC50 turned out to be 1 nM in the data set with human RSV subtype A (setting [1]); 1 nM in the data set with human RSV subtype A (setting [2]); 8 nM in the data set on human RSV subtype B; 3 nM in the data set on bovine RSV; 2 nM in the data set with ovine RSV; 1 nM with goat RSV. In the data set on normal cells, this molecule came in with a CC75 above 12500 nM.

Take `COc1ccc(C(c2ccc(C=Nn3nnnc3N)cc2O)c2ccc(C=Nn3nnnc3N)cc2O)cc1` (stereo not drawn) [Example 2, 5,5′-Bis[1-(((5-amino-1H-tetrazolyl)imino)methyl)]-4″-methoxyphenyl-2,2′-benzylidenebisphenol]: the IC50 in the data set on human RSV subtype A (setting [1]) came out at 1 nM; with human RSV subtype A (setting [2]), 1 nM; with human RSV subtype B it was 8 nM; in the data set with bovine RSV, 1 nM. In the data set with normal cells, this molecule returned a CC75 above 150000 nM.

Turning to `Nc1ncnn1N=Cc1ccc(O)c(C(c2ccc(O)cc2)c2cc(C=Nn3ncnc3N)ccc2O)c1` (stereo not drawn) [Example 3, 5,5′-Bis[1-(((5-amino-1H-1,2,4 triazolyl)imino)methyl)]-2,2′, 4″t-methylidyne trisphenol], the IC50 in the data set with human RSV subtype A (setting [1]) is 50 nM; with human RSV subtype A (setting [2]), 50 nM; with human RSV subtype B it was 460 nM; with bovine RSV, 10 nM; with ovine RSV, 170 nM. In the data set on normal cells, this molecule displayed a CC75 of 12500 nM.

In the case of `Nc1nncn1N=Cc1ccc(O)c(C(c2ccc(O)cc2)c2cc(C=Nn3cnnc3N)ccc2O)c1` (stereo not drawn) [Example 4, 5,5′-Bis[4-(((3-amino-4H-1,2,4-triazolyl)imino)methyl)]-2,2′,4″-methylidyne trisphenol], the IC50 in the data set with human RSV subtype A (setting [1]) worked out at 110 nM; in the data set on human RSV subtype A (setting [2]), 110 nM; in the data set with human RSV subtype B, 150 nM; in the data set with bovine RSV, 270 nM. The same molecule came in with a CC75 in the data set on normal cells of 18800 nM.

As to `Nc1nnn(N=Cc2ccc(C(c3ccc(O)cc3)c3ccc(C=Nn4nnc(N)n4)cc3O)c(O)c2)n1` (stereo not drawn) [Example 5, 5,5′-Bis[2-(((5-amino-2H-tetrazolyl)imino)methyl)]-2,2′,4″-methylidynetrisphenol], the IC50 is 90 nM with human RSV subtype A (setting [1]); 90 nM with human RSV subtype A (setting [2]); 1900 nM with human RSV subtype B; 1700 nM in the data set on bovine RSV; 1200 nM in the data set on ovine RSV. The CC75 in the data set on normal cells is above 50000 nM.

Take `Cc1nnnn1/N=C/c1ccc(O)c(C(c2ccc(O)cc2)c2cc(/C=N/n3nnnc3C)ccc2O)c1` [Example 6, 5,5′-Bis[1-(((5-methyl-1H-tetrazolyl)imino)methyl)]-2,2′,4″-methylidynetrisphenol]: the IC50 in the data set on human RSV subtype A (setting [1]) worked out at 1 nM; in the data set on human RSV subtype A (setting [2]), 1 nM; in the data set on human RSV subtype B it was 2 nM; with bovine RSV, 1 nM; with ovine RSV, 1 nM; in the data set on goat RSV it was 1 nM. The molecule further returned a CC75 in the data set on normal cells of 3100 nM.

As for `Nc1nnnn1N=Cc1ccc(C(c2ccccc2)c2ccc(C=Nn3nnnc3N)cc2O)c(O)c1` (stereo not drawn) [Example 7, 5,5′-Bis[1-(((5-amino-1H-tetrazolyl)imino)methyl)]-2,2′-benzylidenebisphenol], the IC50 in the data set on human RSV subtype A (setting [1]) and with human RSV subtype A (setting [2]) was 1 nM throughout. The molecule also showed a CC75 in the data set with normal cells above 6300 nM.

Turning to `Nc1nnnn1N=Cc1ccc(O)c(Cc2cc(C=Nn3nnnc3N)ccc2O)c1` [Example 8], the IC50 in the data set on human RSV subtype A (setting [1]) stood at 370 nM; in the data set on human RSV subtype A (setting [2]) it was 370 nM; with human RSV subtype B, 47300 nM; with bovine RSV, 16200 nM. The molecule further registered a CC75 in the data set with normal cells of 9400 nM.

As for `NC(=O)c1ncn([C@@H]2O[C@H](CO)[C@@H](O)[C@H]2O)n1` [Ribavirin, 1-beta-D-ribofuranosyl-1H-1,2,4-triazole-3-carboxamide, reference compound], the IC50 in the data set with human RSV subtype A (human respiratory syncytial virus, HEp-2, human RSV subtype A, concentration protecting 50% of cell monolayer from virus-induced cytopathic effect, HEp2 cells, 60 hours, read-out: IC50 RSV-A) came out at 24300 nM; with human RSV subtype A (human respiratory syncytial virus, Activity against human RSV subtype A (Table 2), values marked 2: protection achieved only 70-90% at highest concentrations tested, read-out: IC50), 24300 nM; in the data set on human RSV subtype B (setting [3]), 17700 nM; in the data set on bovine RSV (Bovine orthopneumovirus) it was 7500 nM; in the data set with ovine RSV (setting [3]), 15500 nM; with goat RSV, 3300 nM. The same molecule registered a CC75 in the data set with normal cells of 9400 nM.
